Read-outs that look alike come from different tables or passages of the source.
Legend:
[1] = test system: ThermoSequenase DNA polymerase; test: Cycle sequencing reactions with radiolabelled terminators; type: biochemical; settings: for length of sequence obtained: dSTP 40 μM in place of dATP ("A" mix), dITP 37.5 μM or 8-oxo-dGTP 160 μM in place of dGTP
Method: The incorporation of dSTP and the pyrazolo compound (4.11) into DNA by ThermoSequenase™ DNA polymerase was examined in cycle sequencing reactions.
The following nucleotide mixes were made up:
a) Standard dNTP mix 7.5 μM dATP, dCTP, dGTP, dTTP
b) Standard dITP mix 7.5 μM dATP, dCTP, dTTP and 37.5 μM dITP
c) 8-oxo-dGTP mix 7.5 μM dATP, dCTP, dTTP and 160 μM 8-oxo-dGTP
d) dSTP “A” mix 7.5 μM dCTP, dGTP, dTTP and 40 μM dSTP
e) Compound (4.11) “A” mix 7.5 μM dCTP, dGTP, dTTP and 40 μM compound (4.11)
f) dSTP “G” mix 7.5 μM dATP, dCTP, dTTP and 80 μM dSTP
g) Compound (4.11) “G” mix 7.5 μM dATP, dCTP, dTTP and 80 μM compound (4.11)
The following reaction master mix was made up:
All reagents were from ThermoSequenase radiolabelled terminator cycle sequencing kit (US79750 Amersham life Science). [α^33P] ddNTP's were from Amersham Pharmacia Biotech (code AH9539).
All reactions were overlayed with mineral oil and then cycled as follows:
The reactions were then heated at 95° C. for 2 minutes before loading onto a 6% polyacrylamide 7M urea gel. The gel was run at 48 mA for 90 minutes. After fixing in 10% acetic acid/10% methanol the gel was dried and exposed to Kodak Biomax autoradiography film.

[2] = test system: terminal deoxynucleotidyl transferase; test: Oligonucleotide tailing reaction; type: biochemical; settings: 64 μM dNTP or analogue triphosphate, 25 U enzyme, 90 minutes at 37° C.
Method: A 15 mer primer (sequence: 5′ TGC ATG TGC TGG AGA 3′) (SEQ ID NO. 6) and 8 to 32 base oligonucleotide markers were 5′ end labelled with [y^33P] ATP and T4 polynucleotide kinase. Reactions were boiled for 5 minutes after labelling to remove any PNK activity. Four picomoles of the labelled primer, 25 U terminal deoxynucleotidyl transferase and 64 μM dNTP or analogue triphosphate were incubated in 25 μl 100 mM cacodylate buffer pH7.2, 2 mM CoCl2 and 0.2 mM 2-mercaptoethanol for 90 minutes at 37° C. […] Autoradiography using Biomax film was carried out on the dry gel.

[3] = test system: 3′ to 5′ exonuclease-free version of Klenow fragment of DNA polymerase I (EFK); settings: for primer extension product, analogue triphosphate as only nucleotide: Template 1, 20 μM or 80 μM analogue triphosphate alone, 37° C., 3 minutes
Method: b) A second primer extension assay was used to compare the triphosphate of the pyrrolo compound (1.14) (dSTP) with the triphosphate of the pyrazolo compound (4.11) as substrates for the 3′ to 5′ exonuclease-free version of Klenow fragment of DNA polymerase I (EFK). The assay used a ^33P 5′ end labelled 15 mer primer hybridised to one of two different 24 mer templates.
One picomole ^33P labelled primer was hybridised to 2 picomoles of template in ×2 Klenow buffer. To this was added either 4 μM dNTPαS, 20 μM or 80 μM analogue triphosphate or a mixture of 4 μM dNTPαS and 20 or 80 μM analogue triphosphate. Two units EFK and 2 mU inorganic pyrophosphatase were used per reaction. Primer alone, primer plus template, primer plus template plus enzyme controls were also carried out. The reactions were incubated at 37° C. for 3 minutes. Reactions were then stopped by the addition of formamide EDTA stop solution. Reaction products were separated on a 19% polyacrylamide 7M urea gel and the product fragments sized by comparison with a ^33P labelled 8 to 32 base oligonucleotide ladder after exposure to Kodak Biomax autoradiography film.

[4] = biological target: 3′ to 5′ exonuclease-free version of Klenow fragment (Escherichia coli, UniProt P00582, D355A/E357A); settings: 50 μM dSTP, 37° C., 15 minutes, opposite T or C in template, not opposite A or G
Method: (§1) a) The incorporation of dSTP into DNA by DNA polymerases was examined in primer extension assays. […] Each reaction contained 1 pmol of a 24-mer oligonucleotide: 5′ […] (SEQ ID NO. 1) annealed to 0.25 pmol of a complementary 20-mer oligonucleotide 5′ […] (SEQ ID NO. 2) which was labelled at the 5′ end with 32P, and 1 μl of 10×buffer (for Taq polymerase: 500 mM KCl, 100 mM Tris pH 9 at room temperature, 1% Triton-X 100, 15 mM MgCl2; for the other two enzymes: 50 mM MgCl2, 100 mM Tris pH 7.5 at room temperature, 75 mM DTT). Normal dNTPs, in various combinations, were added, as required, to 50 μM final concentration; dSTP was also used at 50 μM final concentration.
(§2) For each enzyme four reactions were performed:
(§3) iv) plus dSTP, TTP and dCTP.
(§4) A single unit of the appropriate polymerase was added to start each of the reactions; these were incubated for 15 minutes (at 72° C. under mineral oil for Taq, at 37° C. for Pol I derivatives) before being terminated by the addition of 5 μl of termination mix (95% formamide, 20 mM EDTA, 0.05% Bromophenol Blue, 0.05% Xylene Cyanol FF). The reactions were heated to 70° C. for ten minutes before electrophoresis on a 20% polyacrylamide/7M urea gel, which was then exposed to autoradiography film.

Taq polymerase = biological target: T1, Taq polymerase (Thermus aquaticus, UniProt P19821); test: Primer extension assay, incorporation of dSTP into DNA by Taq polymerase; type: biochemical; settings: 50 μM dSTP, 72° C., 15 minutes, opposite T or C in template, not opposite A or G
T1 construct: purchased Promega
Method: as §1, §2, §3, §4

[5] = biological target: T2, Klenow fragment of E. coli DNA polymerase I (Escherichia coli, UniProt P00582); test: Primer extension assay, incorporation of dSTP into DNA by Klenow fragment; type: biochemical; settings: 50 μM dSTP, 37° C., 15 minutes, opposite T or C in template, not opposite A or G
T2 construct: the Klenow fragment of E. coli DNA polymerase I (Boehringer Mannheim); purchased Boehringer Mannheim
Method: as §1, §2, §3, §4

Sequence of 3′ to 5′ exonuclease-free version of Klenow fragment (P00582 324-928 D355A/E357A): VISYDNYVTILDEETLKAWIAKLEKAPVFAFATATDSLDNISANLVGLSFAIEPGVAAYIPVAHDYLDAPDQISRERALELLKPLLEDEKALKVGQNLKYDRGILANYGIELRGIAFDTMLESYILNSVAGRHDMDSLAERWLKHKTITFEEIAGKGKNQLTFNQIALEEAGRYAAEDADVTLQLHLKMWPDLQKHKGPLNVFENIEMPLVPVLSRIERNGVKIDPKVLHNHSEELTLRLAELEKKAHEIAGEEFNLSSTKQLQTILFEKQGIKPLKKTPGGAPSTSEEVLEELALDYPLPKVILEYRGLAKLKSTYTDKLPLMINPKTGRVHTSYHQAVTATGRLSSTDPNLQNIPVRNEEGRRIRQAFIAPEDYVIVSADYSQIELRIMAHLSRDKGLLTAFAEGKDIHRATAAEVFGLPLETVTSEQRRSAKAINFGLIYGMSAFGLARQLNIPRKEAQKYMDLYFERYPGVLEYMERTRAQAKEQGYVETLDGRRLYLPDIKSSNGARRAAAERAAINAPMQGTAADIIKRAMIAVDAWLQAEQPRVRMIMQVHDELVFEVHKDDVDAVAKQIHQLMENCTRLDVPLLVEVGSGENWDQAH
T2 sequence (P00582 324-928): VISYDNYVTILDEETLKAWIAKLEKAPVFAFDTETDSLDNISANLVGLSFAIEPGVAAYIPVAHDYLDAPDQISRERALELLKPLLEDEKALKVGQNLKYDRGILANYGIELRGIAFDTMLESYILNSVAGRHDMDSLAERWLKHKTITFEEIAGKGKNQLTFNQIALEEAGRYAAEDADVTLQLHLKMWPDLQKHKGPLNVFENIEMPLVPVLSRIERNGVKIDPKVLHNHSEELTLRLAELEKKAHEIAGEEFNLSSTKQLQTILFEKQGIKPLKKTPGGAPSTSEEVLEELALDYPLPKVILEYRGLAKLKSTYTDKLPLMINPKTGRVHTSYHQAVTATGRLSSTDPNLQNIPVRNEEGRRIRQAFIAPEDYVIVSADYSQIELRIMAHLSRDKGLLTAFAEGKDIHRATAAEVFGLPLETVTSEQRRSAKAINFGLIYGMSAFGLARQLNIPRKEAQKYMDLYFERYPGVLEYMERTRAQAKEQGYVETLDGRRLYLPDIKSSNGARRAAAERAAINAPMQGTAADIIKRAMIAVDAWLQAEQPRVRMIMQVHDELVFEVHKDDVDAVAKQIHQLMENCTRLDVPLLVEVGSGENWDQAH
T1 sequence (P19821 whole entry): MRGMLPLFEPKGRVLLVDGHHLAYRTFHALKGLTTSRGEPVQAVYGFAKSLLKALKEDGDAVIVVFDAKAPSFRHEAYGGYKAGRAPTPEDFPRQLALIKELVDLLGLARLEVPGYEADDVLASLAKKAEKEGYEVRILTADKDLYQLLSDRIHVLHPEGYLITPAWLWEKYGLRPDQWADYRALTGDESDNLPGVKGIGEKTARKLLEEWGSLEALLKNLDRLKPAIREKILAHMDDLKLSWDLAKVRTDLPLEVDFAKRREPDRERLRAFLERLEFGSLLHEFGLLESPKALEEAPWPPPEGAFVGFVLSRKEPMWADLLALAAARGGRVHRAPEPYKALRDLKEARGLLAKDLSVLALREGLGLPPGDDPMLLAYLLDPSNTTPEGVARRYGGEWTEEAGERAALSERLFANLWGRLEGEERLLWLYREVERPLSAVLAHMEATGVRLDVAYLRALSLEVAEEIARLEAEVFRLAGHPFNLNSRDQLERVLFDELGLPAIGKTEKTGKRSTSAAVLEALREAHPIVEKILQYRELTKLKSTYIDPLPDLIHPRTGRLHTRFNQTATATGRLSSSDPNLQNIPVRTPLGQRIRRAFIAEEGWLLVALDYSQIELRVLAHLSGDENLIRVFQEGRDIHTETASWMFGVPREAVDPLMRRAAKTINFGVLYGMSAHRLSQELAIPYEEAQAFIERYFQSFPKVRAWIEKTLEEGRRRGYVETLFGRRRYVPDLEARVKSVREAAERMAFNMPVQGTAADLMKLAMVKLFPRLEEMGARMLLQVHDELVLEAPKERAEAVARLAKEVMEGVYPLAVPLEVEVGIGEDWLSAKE

`Nc1nc2c([nH]c(=O)n2[C@H]2C[C@H](O)[C@@H](COP(=O)(O)OP(=O)(O)OP(=O)(O)O)O2)c(=O)[nH]1` [8-oxo dGTP, 8-oxo-dGTP] was tested, and the “length of sequence obtained” value ([1]; M13 mp18 template, 10 cycles) was 15-20 bases.

With `O=c1[nH]cnc2c1ncn2[C@H]1C[C@H](O)[C@@H](COP(=O)(O)OP(=O)(O)OP(=O)(O)O)O1` [dITP] the “band intensities of sequence” value ([1]; M13 mp18 template, 10 cycles, autoradiography) was “uneven band intensities especially in the G track” and the “length of sequence obtained” value ([1]; M13 mp18 template, 10 cycles) was < 200 bases.

With “1-(2′-deoxy-5′-O-triphosphate-ribofuranosyl)-pyrazolo[3,4-d]pyrimidine[2,3-c]dihydro-oxazepine [Compound 4.11]” the “length of tail added to 15 mer primer” value [2] was “predominantly by a single base”.

For `O=P(O)(O)OP(=O)(O)OP(=O)(O)OCC1OC(n2nc3c4c(ncnc42)NOCC3)CC1O` (stereo not shown) [Compound 4.11, 1-(2′-deoxy-5′-O-triphosphate-ribofuranosyl)-pyrazolo[3,4-d]pyrimidine[2,3-c]dihydro-oxazepine], the “further extension after incorporation of two analogue residues” value ([3]; Template 1) was “did not occur”, the “native base in whose place the analogue is incorporated” value ([3]; Template 1) was “behaving as A” and the “primer extension product, analogue triphosphate as only nucleotide” value [3] was “did not extend”. The “primer extension product in the presence of dGTP” value ([3]; Template 1, analogue triphosphate plus dGTP) was “+3 product”, the “effect of incorporation of two analogue residues” value ([3]; Template 2) was “resulted in termination” and the “native base in whose place the analogue is incorporated” value ([3]; Template 2) was “behaved as A rather than G”.

With `Nc1nc2c(ncn2[C@H]2C[C@H](O)[C@@H](COP(=O)(O)OP(=O)(O)OP(=O)(O)O)O2)c(=O)[nH]1` [dGTP, reference compound] the “length of tail added to 15 mer primer” value [2] was ~50 bases.

`Nc1ncnc2c1ncn2[C@H]1C[C@H](O)[C@@H](COP(=O)(O)OP(=O)(O)OP(=O)(O)O)O1` [dATP, reference compound] was tested, and the “length of tail added to 15 mer primer” value [2] was “greater than 100 bases”.

“9-(2′-Deoxy-5′-O-triphosphate-ribofuranosyl)-pyrrolo[4,3,2-de]pyrimido[4,5-c]dihydro-oxazepine [dSTP]” was tested, and the “incorporation of dSTP into DNA” value [4] was “can incorporate dSTP as either dGTP or as dATP”, the “native base in whose place the analogue is incorporated” value ([3]; Template 1) was “efficiently incorporated in place of both G and A” and the “primer extension product, analogue triphosphate as only nucleotide” value [3] was “+3 product”. The “native base in whose place the analogue is incorporated” value ([3]; Template 2) was “efficiently incorporated as a single G but that multiple additions as G are slow”, the “primer extension products with mixture of dTTPαS and analogue triphosphate” value ([3]; Template 2, no +1 product) was “+2, +3 and +5 products” and the “length of sequence obtained” value ([1]; M13 mp18 template, 10 cycles) was > 250 bases. For the same compound, the “quality as polymerase substrate” value ([1]; conclusion from cycle sequencing, compared with dITP) was “very good polymerase substrate”, the “length of tail added to 15 mer primer” value [2] was “intermediate in size between those of dATP and dGTP” and the “incorporation of dSTP into DNA” value (Taq polymerase) was “can incorporate dSTP as either dGTP or as dATP”. For the same compound, the “incorporation of dSTP into DNA” value [5] was “can incorporate dSTP as either dGTP or as dATP”.

Source: patent publication US6600028B1, “Tricyclic base analogues” (Amersham Pharmacia Biotech UK Limited, priority 1997, dated 2003)
